Relative viability data for five cell lines are collected here from the supplement of paper PMC10307832.

Assay in all cases: relative viability (nuclei count vs DMSO), 5 days (fraction); higher = more cells survive
Compound in the assay “RAF265 + Crizotinib”: Cn1c(Nc2ccc(C(F)(F)F)cc2)nc2cc(Oc3ccnc(-c4ncc(C(F)(F)F)[nH]4)c3)ccc21 [RAF265] + C[C@@H](Oc1cc(-c2cnn(C3CCNCC3)c2)cnc1N)c1c(Cl)ccc(F)c1Cl [Crizotinib] (partner 1 µM)
A digest of the protocol:
(§1)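 One day after seeding in 1536-well plates, lung cancer cell lines were dosed by pin tool. Dosing was either single-drug or a fixed anchor-drug dose plus five library-drug doses (not always all listed) in √10 steps. After 5 days, nuclei were stained in one fix-and-stain step and counted on 4× images, and relative viability is the nuclei count of treated wells over that of vehicle wells, given as the median of duplicate plates.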

Compound in the assay “Doramapimod + Crizotinib”: Cc1ccc(-n2nc(C(C)(C)C)cc2NC(=O)Nc2ccc(OCCN3CCOCC3)c3ccccc23)cc1 [Doramapimod] + C[C@@H](Oc1cc(-c2cnn(C3CCNCC3)c2)cnc1N)c1c(Cl)ccc(F)c1Cl [Crizotinib] (partner 1 µM)
A digest of the protocol: as §1

Compound in the assay “RAF265 + Pemetrexed”: Cn1c(Nc2ccc(C(F)(F)F)cc2)nc2cc(Oc3ccnc(-c4ncc(C(F)(F)F)[nH]4)c3)ccc21 [RAF265] + Nc1nc2[nH]cc(CCc3ccc(C(=O)N[C@@H](CCC(=O)O)C(=O)O)cc3)c2c(=O)[nH]1 [Pemetrexed] (partner 0.2 µM)
A digest of the protocol:
as §1

Compound in the assay “RAF265 + Luminespib”: Cn1c(Nc2ccc(C(F)(F)F)cc2)nc2cc(Oc3ccnc(-c4ncc(C(F)(F)F)[nH]4)c3)ccc21 [RAF265] + CCNC(=O)c1noc(-c2cc(C(C)C)c(O)cc2O)c1-c1ccc(CN2CCOCC2)cc1 [Luminespib] (partner 0.01 µM)
Summed up:
as §1

As for HCC-78, the relative viability with RAF265 + Crizotinib (first compound 0.01 µM) came to 0.337; with RAF265 + Crizotinib (first compound 0.03162 µM), 0.288; with RAF265 + Crizotinib (first compound 0.1 µM), 0.381; with RAF265 + Crizotinib (first compound 0.3162 µM), 0.301; in the assay with RAF265 + Crizotinib (first compound 1 µM), 0.359; with Doramapimod + Crizotinib (first compound 0.02 µM), 0.356. Also, the relative viability with Doramapimod + Crizotinib (first compound 0.06325 µM) was determined as 0.364; with Doramapimod + Crizotinib (first compound 0.2 µM), 0.336; with Doramapimod + Crizotinib (first compound 0.6325 µM) it was 0.399; with Doramapimod + Crizotinib (first compound 2 µM), 0.358; with RAF265 + Pemetrexed (first compound 0.01 µM), 0.906; with RAF265 + Pemetrexed (first compound 0.03162 µM), 0.844. Also, the figures for the relative viability with RAF265 + Pemetrexed (first compound 0.1 µM), with RAF265 + Pemetrexed (first compound 0.3162 µM) and with RAF265 + Pemetrexed (first compound 1 µM) were 0.884, 0.881 and 0.898, respectively.

For HCC-366, the relative viability was determined as 0.487 with RAF265 + Crizotinib (first compound 0.01 µM); 0.473 with RAF265 + Crizotinib (first compound 0.03162 µM); 0.739 with RAF265 + Crizotinib (first compound 0.1 µM); 0.626 with RAF265 + Crizotinib (first compound 0.3162 µM); 0.404 with RAF265 + Crizotinib (first compound 1 µM); 0.612 with Doramapimod + Crizotinib (first compound 0.02 µM). For the same cell line, the relative viability amounted to 0.513 with Doramapimod + Crizotinib (first compound 0.06325 µM); 0.487 in the assay with Doramapimod + Crizotinib (first compound 0.2 µM); 0.451 with Doramapimod + Crizotinib (first compound 0.6325 µM); 0.398 with Doramapimod + Crizotinib (first compound 2 µM); 0.153 with RAF265 + Pemetrexed (first compound 0.01 µM); 0.146 with RAF265 + Pemetrexed (first compound 0.03162 µM). The relative viability in the assay with RAF265 + Pemetrexed (first compound 0.1 µM) is 0.185; in the assay with RAF265 + Pemetrexed (first compound 0.3162 µM) it was 0.208; in the assay with RAF265 + Pemetrexed (first compound 1 µM), 0.132.

For the cell line HCC-827, the relative viability with RAF265 + Luminespib (first compound 0.01 µM) is 0.837; with RAF265 + Luminespib (first compound 0.03162 µM), 0.652; with RAF265 + Luminespib (first compound 0.1 µM), 0.74; in the assay with RAF265 + Luminespib (first compound 1 µM), 0.132; with RAF265 + Crizotinib (first compound 0.01 µM), 0.931; with RAF265 + Crizotinib (first compound 0.03162 µM), 1. The relative viability stood at 1.01 with RAF265 + Crizotinib (first compound 0.1 µM); 0.871 in the assay with RAF265 + Crizotinib (first compound 1 µM); 0.95 with Doramapimod + Crizotinib (first compound 0.02 µM); 0.869 with Doramapimod + Crizotinib (first compound 0.06325 µM); 0.949 with Doramapimod + Crizotinib (first compound 0.2 µM); 0.841 with Doramapimod + Crizotinib (first compound 0.6325 µM). Moreover, the relative viability in the assay with Doramapimod + Crizotinib (first compound 2 µM) came out at 0.666; with RAF265 + Pemetrexed (first compound 0.01 µM) it was 0.281; with RAF265 + Pemetrexed (first compound 0.03162 µM), 0.24; with RAF265 + Pemetrexed (first compound 0.1 µM), 0.214; with RAF265 + Pemetrexed (first compound 1 µM), 0.278.

As for HOP-62, the relative viability with RAF265 + Luminespib (first compound 0.01 µM) is 0.988; in the assay with RAF265 + Luminespib (first compound 0.03162 µM) it was 0.879; with RAF265 + Luminespib (first compound 0.1 µM) it was 0.93; in the assay with RAF265 + Luminespib (first compound 0.3162 µM), 0.774; with RAF265 + Luminespib (first compound 1 µM), 0.688; with RAF265 + Crizotinib (first compound 0.01 µM) it was 0.972. For the same cell line, the relative viability with RAF265 + Crizotinib (first compound 0.1 µM) was 0.714; with RAF265 + Crizotinib (first compound 0.3162 µM) it was 0.772; with RAF265 + Crizotinib (first compound 1 µM) it was 0.629; with Doramapimod + Crizotinib (first compound 0.02 µM), 0.888; with Doramapimod + Crizotinib (first compound 0.06325 µM) it was 1.02; in the assay with Doramapimod + Crizotinib (first compound 0.2 µM), 1.12. The relative viability with Doramapimod + Crizotinib (first compound 0.6325 µM) worked out at 0.597; in the assay with Doramapimod + Crizotinib (first compound 2 µM) it was 0.968; in the assay with RAF265 + Pemetrexed (first compound 0.01 µM) it was 0.261; with RAF265 + Pemetrexed (first compound 0.03162 µM), 0.306; with RAF265 + Pemetrexed (first compound 0.1 µM) it was 0.267; in the assay with RAF265 + Pemetrexed (first compound 0.3162 µM) it was 0.246. The relative viability with RAF265 + Pemetrexed (first compound 1 µM) turned out to be 0.245.

As for IA-LM, the relative viability is 0.711 with RAF265 + Crizotinib (first compound 0.01 µM); 0.646 in the assay with RAF265 + Crizotinib (first compound 0.03162 µM); 0.803 with RAF265 + Crizotinib (first compound 0.1 µM); 0.768 with RAF265 + Crizotinib (first compound 0.3162 µM); 0.642 with RAF265 + Crizotinib (first compound 1 µM); 0.856 with Doramapimod + Crizotinib (first compound 0.02 µM). Also, the figures for the relative viability with Doramapimod + Crizotinib (first compound 0.2 µM), in the assay with Doramapimod + Crizotinib (first compound 0.6325 µM) and with Doramapimod + Crizotinib (first compound 2 µM) were 0.699, 0.795 and 0.792, respectively.
